Consider four molecules from article PMC11173529, “Structure–Activity Relationship Studies in a Series of Xanthine Inhibitors of SLACK Potassium Channels” (Molecules, 2024).

Holding throughout (assay type): cell-based
The target in data set [1] is T1, NaV1.7 (Homo sapiens, UniProt Q15858).
T1 construct: expressed in transfected cells; host or cells: HEK293
Kind of data set: Tl+-flux selectivity panel in HEK-293 cells: NaV1.7. Particulars: HEK293, 10 µM test compound, relative to control TC-N 1752, read-out: Percent Inhibition ± SEM. How it is done:
(§1) With a handful of analogs that offered improved SLACK potency relative to hit compound 8, we next proceeded to investigate the ancillary pharmacology of such compounds, both with respect to other Slo family members as well as versus a spectrum of diverse ion channels (Table 5). Thus, we screened four compounds (32, 48, 70, and 71) at 10 µM in our in-house selectivity panel of Tl^+-flux assays in HEK-293 cells stably expressing the target of interest. […] Some valuable SAR was noted as well. […] Reduction of inhibition at Maxi-K α1/β4 also followed. This SAR will be important to bear in mind for continued optimization within this series. […] Of particular note is the lack of significant hERG activity in this series, as activity versus that counter-target has been an issue with other SLACK inhibitors.
(§2) Stably transfected monoclonal HEK293 cell lines expressing Slick, Maxi-K α1/β3, Maxi-K α1/β4, CaV3.2, GIRK 1/2, KV2.1, KV7.2, NaV1.7, and TASK-1 were generated as previously described. Stably transfected monoclonal HEK293 cell lines expressing hERG were generated as previously described. CHO-K1 cells expressing human Slack and disease-associated human Slack mutations, G288S and A934T, were generated by transfecting a PiggyBac TRE mammalian expression vector (VectorBuilder, Chicago, IL, USA) containing KCNT1. FuGENE 6 (Promega, Madison, WI, USA) transfection reagent and protocol, together with Opti-MEM (Thermo Fisher Scientific, Walkham, MA, USA), were utilized.
(§3) The Tl^+ flux assays were conducted as previously described with modifications optimized for individual cell lines as described below. Following removal of cell culture media, cells were loaded with Tl^+-sensitive dye loading solution containing Thallos-AM (ION Biosciences, San Marcos, TX, USA), 1.25 mM Probenecid, and 0.3% Pluronic F-127 (MilliporeSigma, Burlington, MA, USA), in assay buffer comprised of Hanks Balanced Salt Solution (HBSS) (Thermo Fisher Scientific, Waltham, MA, USA) and 20 mM HEPES (Corning, Corning, NY, USA) at room temperature for one-hour. Dye loading solution was replaced with 20 μL/well of assay buffer prior to assaying. Cell plates were then loaded onto a Panoptic kinetic imaging plate reader (WaveFront Biosciences, Franklin, TN, USA). Data were acquired at 5 Hz (excitation 482 ± 35 nm, emission 536 ± 40 nm) for 10 s, at which time 20 μL/well of test compounds in assay buffer at 2-fold above the desired final concentration was added and allowed to incubate for 120 s. Next, 10 μL/well of Tl^+ stimulus buffer (129 mM Na gluconate, 1.2 mM CaSO4, 1 MgSO4, 1 mM Na2HPO4, 4.17 mM NaHCO3, 5.56 mM glucose, 2.5 mM Tl2SO4, and 10 mM HEPES pH 7.3) was added. Imaging was concluded after an additional 120 s.

The target in data set [2] is T2, CaV3.2 (Homo sapiens, UniProt O95180).
T2 construct: expressed in transfected cells; host or cells: HEK293
As to the kind of experiment: Tl+-flux selectivity panel in HEK-293 cells: CaV3.2. Particulars: HEK293, 10 µM test compound, relative to control bepridil, read-out: Percent Inhibition ± SEM. The protocol: as §1, §2, §3

Data set [3] deals with T3, TASK-1 (Homo sapiens, UniProt O14649).
T3 construct: expressed in transfected cells; host or cells: HEK293
As to the kind of experiment: Tl+-flux selectivity panel in HEK-293 cells: TASK-1. Particulars: HEK293, 10 µM test compound, relative to control bepridil, read-out: Percent Inhibition ± SEM. How it is done:
as §1, §2, §3

The target in data set [4] is T4, KV7.2 (Homo sapiens, UniProt O43526).
T4 construct: expressed in transfected cells; host or cells: HEK293
As to the kind of experiment: Tl+-flux selectivity panel in HEK-293 cells: KV7.2. As to conditions: HEK293, 10 µM test compound, relative to control XE991, read-out: Percent Inhibition ± SEM. How it is done:
as §1, §2, §3

For data set [5], the target named is T5, KV2.1 (Homo sapiens, UniProt Q14721).
T5 construct: expressed in transfected cells; host or cells: HEK293
T5 sequence (Q14721 1-858): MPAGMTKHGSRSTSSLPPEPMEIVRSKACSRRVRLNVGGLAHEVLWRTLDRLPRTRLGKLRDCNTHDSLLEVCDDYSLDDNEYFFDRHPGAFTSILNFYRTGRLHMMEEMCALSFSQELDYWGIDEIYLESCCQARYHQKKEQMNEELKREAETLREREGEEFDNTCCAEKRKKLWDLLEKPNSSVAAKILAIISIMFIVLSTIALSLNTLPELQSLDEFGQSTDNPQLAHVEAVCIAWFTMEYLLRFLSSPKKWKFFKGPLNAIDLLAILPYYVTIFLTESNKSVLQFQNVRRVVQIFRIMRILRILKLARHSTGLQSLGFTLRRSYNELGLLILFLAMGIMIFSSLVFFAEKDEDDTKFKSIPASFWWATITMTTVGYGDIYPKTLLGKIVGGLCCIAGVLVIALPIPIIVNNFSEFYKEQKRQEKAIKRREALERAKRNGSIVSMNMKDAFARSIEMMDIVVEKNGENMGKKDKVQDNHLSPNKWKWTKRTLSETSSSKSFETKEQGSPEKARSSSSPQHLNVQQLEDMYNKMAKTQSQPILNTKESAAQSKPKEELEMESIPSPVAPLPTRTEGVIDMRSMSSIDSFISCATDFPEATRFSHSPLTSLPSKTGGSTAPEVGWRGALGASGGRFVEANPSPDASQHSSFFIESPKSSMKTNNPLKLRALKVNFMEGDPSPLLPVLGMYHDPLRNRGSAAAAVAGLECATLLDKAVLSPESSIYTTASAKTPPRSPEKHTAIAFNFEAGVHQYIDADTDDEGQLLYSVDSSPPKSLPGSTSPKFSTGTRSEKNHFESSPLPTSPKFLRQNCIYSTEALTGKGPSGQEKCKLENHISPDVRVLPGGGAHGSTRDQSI
Kind of data set: Tl+-flux selectivity panel in HEK-293 cells: KV2.1. As to conditions: HEK293, 10 µM test compound, relative to control guangxitoxin 1E, read-out: Percent Inhibition ± SEM. The protocol: as §1, §2, §3

In data set [6] the target is T6, hERG (Homo sapiens, UniProt Q12809).
T6 construct: expressed in transfected cells; host or cells: HEK293
As to the kind of experiment: Tl+-flux selectivity panel in HEK-293 cells: hERG. As to conditions: HEK-293 cells stably expressing hERG, 10 µM test compound, relative to control bepridil, read-out: Percent Inhibition ± SEM. The protocol: as §1, §2, §3

The target of data set [7] is T7, Maxi-K α1/β3 (Homo sapiens, UniProt Q12791).
T7 construct: expressed in transfected cells; host or cells: HEK293
Kind of data set: Tl+-flux selectivity panel in HEK-293 cells: Maxi-K α1/β3. Particulars: HEK293, 10 µM test compound, relative to control paxilline, read-out: Percent Inhibition ± SEM. The protocol: as §1, §2, §3

Data set [8] has as its target T8, Maxi-K α1/β4 (Homo sapiens, UniProt Q12791).
T8 construct: expressed in transfected cells; host or cells: HEK293
As to the kind of experiment: Tl+-flux selectivity panel in HEK-293 cells: Maxi-K α1/β4. Particulars: HEK293, 10 µM test compound, relative to control paxilline, read-out: Percent Inhibition ± SEM. How it is done: as §1, §2, §3

T2 sequence (O95180 whole entry): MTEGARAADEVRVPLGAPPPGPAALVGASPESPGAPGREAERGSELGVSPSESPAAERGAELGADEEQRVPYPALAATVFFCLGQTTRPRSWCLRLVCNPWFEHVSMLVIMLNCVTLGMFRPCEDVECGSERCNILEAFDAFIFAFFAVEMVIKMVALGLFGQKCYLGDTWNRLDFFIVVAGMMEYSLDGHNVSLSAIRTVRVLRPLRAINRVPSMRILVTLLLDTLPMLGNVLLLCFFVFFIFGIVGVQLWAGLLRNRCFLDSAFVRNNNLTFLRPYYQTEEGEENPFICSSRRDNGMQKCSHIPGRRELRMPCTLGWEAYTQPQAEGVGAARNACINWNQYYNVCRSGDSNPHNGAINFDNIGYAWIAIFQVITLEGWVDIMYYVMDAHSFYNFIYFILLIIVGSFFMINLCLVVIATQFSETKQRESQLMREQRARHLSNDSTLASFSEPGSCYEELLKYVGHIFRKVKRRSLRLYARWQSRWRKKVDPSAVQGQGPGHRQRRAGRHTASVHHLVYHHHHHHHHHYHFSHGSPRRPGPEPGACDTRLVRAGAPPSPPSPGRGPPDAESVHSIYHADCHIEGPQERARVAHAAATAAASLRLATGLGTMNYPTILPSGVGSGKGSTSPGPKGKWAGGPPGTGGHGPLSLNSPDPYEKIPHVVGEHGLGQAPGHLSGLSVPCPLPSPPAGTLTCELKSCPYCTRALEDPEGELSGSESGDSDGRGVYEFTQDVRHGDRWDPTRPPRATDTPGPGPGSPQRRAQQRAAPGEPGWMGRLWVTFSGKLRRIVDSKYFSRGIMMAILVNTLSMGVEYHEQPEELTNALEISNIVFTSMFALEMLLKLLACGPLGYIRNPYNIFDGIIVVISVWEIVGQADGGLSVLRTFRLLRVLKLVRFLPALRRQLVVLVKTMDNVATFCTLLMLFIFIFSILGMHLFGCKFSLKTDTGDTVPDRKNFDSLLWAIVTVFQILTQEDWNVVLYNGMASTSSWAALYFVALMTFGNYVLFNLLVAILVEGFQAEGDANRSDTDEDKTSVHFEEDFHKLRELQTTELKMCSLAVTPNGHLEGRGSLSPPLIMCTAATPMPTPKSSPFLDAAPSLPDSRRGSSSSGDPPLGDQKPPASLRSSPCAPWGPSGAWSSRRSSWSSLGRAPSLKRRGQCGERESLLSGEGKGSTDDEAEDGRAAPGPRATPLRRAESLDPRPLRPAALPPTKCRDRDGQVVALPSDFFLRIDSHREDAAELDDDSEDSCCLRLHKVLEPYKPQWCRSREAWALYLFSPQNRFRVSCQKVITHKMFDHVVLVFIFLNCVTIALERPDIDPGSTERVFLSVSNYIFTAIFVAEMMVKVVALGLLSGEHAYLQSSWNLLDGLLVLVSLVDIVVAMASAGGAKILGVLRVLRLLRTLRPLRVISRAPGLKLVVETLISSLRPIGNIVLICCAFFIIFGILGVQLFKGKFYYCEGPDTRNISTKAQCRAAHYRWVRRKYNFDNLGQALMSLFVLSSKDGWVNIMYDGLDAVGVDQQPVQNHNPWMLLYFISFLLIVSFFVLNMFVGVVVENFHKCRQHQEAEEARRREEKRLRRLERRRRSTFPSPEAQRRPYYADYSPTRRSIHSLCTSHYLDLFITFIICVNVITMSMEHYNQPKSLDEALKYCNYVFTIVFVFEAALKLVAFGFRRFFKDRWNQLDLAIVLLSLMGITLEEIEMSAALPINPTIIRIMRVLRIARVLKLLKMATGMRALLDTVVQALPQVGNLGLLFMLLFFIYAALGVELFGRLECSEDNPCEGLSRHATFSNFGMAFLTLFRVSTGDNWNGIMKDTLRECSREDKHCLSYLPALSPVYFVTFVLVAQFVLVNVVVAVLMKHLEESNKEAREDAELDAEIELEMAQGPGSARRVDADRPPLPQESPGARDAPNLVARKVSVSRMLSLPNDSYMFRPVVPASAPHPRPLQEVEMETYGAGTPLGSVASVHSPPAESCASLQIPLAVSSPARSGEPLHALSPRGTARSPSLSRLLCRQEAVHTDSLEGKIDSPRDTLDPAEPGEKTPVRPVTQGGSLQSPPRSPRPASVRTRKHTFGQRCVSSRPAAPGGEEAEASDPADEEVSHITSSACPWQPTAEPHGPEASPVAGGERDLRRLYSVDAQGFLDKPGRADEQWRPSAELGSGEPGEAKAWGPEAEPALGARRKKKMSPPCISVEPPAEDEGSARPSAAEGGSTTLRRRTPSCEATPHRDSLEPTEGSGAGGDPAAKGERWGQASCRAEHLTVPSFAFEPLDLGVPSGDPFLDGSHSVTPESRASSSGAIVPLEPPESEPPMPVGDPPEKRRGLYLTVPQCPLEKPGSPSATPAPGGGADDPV
T1 sequence (Q15858 whole entry): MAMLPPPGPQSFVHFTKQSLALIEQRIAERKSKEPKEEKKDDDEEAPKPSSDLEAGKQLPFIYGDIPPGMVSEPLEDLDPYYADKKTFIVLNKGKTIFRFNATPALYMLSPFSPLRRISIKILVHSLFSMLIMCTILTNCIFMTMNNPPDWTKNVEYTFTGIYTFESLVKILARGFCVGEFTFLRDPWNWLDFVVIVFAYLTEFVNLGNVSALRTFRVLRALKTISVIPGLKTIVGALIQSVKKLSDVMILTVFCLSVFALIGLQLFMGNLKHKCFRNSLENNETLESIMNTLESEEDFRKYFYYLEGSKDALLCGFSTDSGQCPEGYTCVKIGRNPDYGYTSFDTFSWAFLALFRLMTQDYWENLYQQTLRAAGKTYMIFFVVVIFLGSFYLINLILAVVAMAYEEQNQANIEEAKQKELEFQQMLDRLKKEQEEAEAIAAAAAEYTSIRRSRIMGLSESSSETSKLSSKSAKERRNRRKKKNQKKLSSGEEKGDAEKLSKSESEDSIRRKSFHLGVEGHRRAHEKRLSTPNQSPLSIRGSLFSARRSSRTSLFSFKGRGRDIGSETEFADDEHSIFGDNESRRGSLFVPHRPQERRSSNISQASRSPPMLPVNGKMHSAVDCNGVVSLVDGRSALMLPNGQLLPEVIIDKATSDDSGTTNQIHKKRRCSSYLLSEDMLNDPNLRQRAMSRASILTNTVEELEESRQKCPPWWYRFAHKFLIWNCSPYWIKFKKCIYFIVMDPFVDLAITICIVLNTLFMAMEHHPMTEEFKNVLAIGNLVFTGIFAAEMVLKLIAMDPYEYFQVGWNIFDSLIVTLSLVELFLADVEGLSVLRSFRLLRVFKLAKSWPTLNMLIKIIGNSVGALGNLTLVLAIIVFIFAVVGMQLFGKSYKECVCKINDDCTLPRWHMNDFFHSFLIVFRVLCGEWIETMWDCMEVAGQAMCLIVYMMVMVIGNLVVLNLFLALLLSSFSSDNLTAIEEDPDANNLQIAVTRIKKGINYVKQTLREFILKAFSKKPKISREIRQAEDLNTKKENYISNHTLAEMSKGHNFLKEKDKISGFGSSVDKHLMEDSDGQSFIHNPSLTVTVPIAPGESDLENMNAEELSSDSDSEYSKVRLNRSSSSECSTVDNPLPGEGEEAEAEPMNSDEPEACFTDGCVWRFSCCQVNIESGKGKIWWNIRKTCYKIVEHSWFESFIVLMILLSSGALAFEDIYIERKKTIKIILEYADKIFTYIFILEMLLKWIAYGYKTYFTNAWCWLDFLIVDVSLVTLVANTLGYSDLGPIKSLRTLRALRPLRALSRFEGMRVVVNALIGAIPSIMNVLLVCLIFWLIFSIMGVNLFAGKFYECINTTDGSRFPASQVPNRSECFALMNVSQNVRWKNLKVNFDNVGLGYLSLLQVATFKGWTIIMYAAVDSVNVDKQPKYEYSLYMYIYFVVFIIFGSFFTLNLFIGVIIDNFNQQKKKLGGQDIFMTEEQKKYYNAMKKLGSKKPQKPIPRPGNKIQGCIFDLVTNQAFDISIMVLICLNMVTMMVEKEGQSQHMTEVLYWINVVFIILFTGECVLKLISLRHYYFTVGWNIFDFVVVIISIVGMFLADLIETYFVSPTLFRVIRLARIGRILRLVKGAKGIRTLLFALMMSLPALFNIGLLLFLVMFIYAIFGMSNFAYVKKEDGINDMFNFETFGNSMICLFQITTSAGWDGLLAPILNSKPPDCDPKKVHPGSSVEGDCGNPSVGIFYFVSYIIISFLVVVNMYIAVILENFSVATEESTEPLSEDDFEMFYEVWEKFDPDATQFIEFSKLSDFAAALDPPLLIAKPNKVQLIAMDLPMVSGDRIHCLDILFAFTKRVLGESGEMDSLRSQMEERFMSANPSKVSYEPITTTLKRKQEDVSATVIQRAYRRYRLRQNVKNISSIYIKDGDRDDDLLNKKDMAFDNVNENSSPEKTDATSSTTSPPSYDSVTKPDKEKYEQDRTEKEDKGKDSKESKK
T3 sequence (O14649 whole entry, species assumed): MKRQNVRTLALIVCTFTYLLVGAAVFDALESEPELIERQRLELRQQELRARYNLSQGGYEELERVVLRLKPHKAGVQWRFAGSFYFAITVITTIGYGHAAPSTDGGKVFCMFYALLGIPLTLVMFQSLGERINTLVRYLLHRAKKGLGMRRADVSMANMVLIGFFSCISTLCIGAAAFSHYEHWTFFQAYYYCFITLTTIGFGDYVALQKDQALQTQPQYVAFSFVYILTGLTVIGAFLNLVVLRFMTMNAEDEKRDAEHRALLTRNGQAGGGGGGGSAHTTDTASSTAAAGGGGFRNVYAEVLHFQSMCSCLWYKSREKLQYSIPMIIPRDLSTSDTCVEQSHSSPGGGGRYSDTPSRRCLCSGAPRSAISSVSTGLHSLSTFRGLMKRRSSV

`CN(Cc1cccc(F)c1)c1nc2c(c(=O)n(Cc3ccccc3)c(=O)n2C)n1C` [Analog 48]: the inhibition (commonly the relative decrease from the control value, in per cent) at 10 µM in data set [1] came out at 39 ± 3.1%; in data set [2] it was 17 ± 4.2%; in data set [3], 24 ± 2.3%; in data set [4], 15 ± 2.3%; in data set [5], 51 ± 1.2%; in data set [7], 63 ± 1.2%. Besides, the inhibition at 10 µM in data set [8] was 42 ± 4.6%. For the same molecule, the inhibition at 120 s, 10 µM in data set [6] was -2.8 ± 2.4%.

Turning to `CCCCN(Cc1ccccc1)c1nc2c(c(=O)n(Cc3ccccc3)c(=O)n2C)n1C` [Analog 70], the inhibition at 10 µM stood at 33 ± 1.4% in data set [1]; 16 ± 2.2% in data set [2]; 23 ± 2.9% in data set [3]; 19 ± 0.2% in data set [4]; 35 ± 1.3% in data set [5]; 34 ± 2.9% in data set [7]. Moreover, in data set [8], the inhibition at 10 µM was 8.5 ± 2.1%. Besides, the inhibition at 120 s, 10 µM in data set [6] amounted to 22 ± 2%.

As to `Cn1c(N(Cc2ccccc2)CC2CC2)nc2c1c(=O)n(Cc1ccccc1)c(=O)n2C` [Analog 71], the inhibition at 10 µM in data set [1] was found to be 29 ± 3%; in data set [2], 24 ± 3.6%; in data set [3], 4.9 ± 1.5%; in data set [4], 14 ± 1.6%; in data set [5] it was 33 ± 1.2%; in data set [7], 17 ± 5.2%. Further, in data set [8], the inhibition at 10 µM stood at 12 ± 3.9%. The inhibition at 120 s, 10 µM in data set [6] amounted to 23 ± 4%.

Turning to `COc1cccc(Cn2c(=O)c3c(nc(N(C)Cc4ccccc4)n3C)n(C)c2=O)c1` [Analog 32], the inhibition at 10 µM in data set [1] is 41 ± 3.3%; in data set [2], 18 ± 1.6%; in data set [3], 17 ± 2.3%; in data set [4] it was 16 ± 2.2%; in data set [5], 51 ± 1.5%; in data set [7], 79 ± 1.4%. Besides, the inhibition at 10 µM in data set [8] amounted to 48 ± 2%. Besides, in data set [6], the inhibition at 120 s, 10 µM was 4.6 ± 4.5%.
